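48-hour exposure; five concentrations; linearly interpolated endpoints. GI50: concentration for 50% inhibition of growth.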 The source made the active and inactive calls. No stated cut-off is given here; in the data, active = GI50 up to about 1.1 µM and inactive = higher.
Assays:
Assay in all cases: NCI-60 cell line screen, 48 h
EKVX = test system: EKVX
MOLT-4 = test system: MOLT-4
SF-268 = test system: SF-268
ACHN = test system: ACHN
Hs-578T = test system: Hs-578T
KM12 = test system: KM12
RXF 393 = test system: RXF 393
DU-145 = test system: DU-145
SK-MEL-2 = test system: SK-MEL-2
OVCAR-3 = test system: OVCAR-3
MDA-N = test system: MDA-N
SNB-19 = test system: SNB-19
SW-620 = test system: SW-620
M14 = test system: M14
HL-60 = test system: HL-60
HCT-116 = test system: HCT-116
HOP-62 = test system: HOP-62
T47D = test system: T47D
OVCAR-8 = test system: OVCAR-8
SK-MEL-28 = test system: SK-MEL-28
NCI/ADR-RES = test system: NCI/ADR-RES
NCI-H522 = test system: NCI-H522
Malme-3M = test system: Malme-3M
TK-10 = test system: TK-10
PC-3 = test system: PC-3
HCT-15 = test system: HCT-15
IGROV-1 = test system: IGROV-1
K562 = test system: K562
SN12C = test system: SN12C
786-0 = test system: 786-0
MDA-MB-231 = test system: MDA-MB-231
BT-549 = test system: BT-549
UO-31 = test system: UO-31
A549 = test system: A549
A498 = test system: A498
NCI-H226 = test system: NCI-H226
MDA-MB-435 = test system: MDA-MB-435
HT-29 = test system: HT-29
SK-OV-3 = test system: SK-OV-3
U-251 = test system: U-251
UACC-257 = test system: UACC-257
SNB-75 = test system: SNB-75
OVCAR-5 = test system: OVCAR-5
OVCAR-4 = test system: OVCAR-4
RPMI-8226 = test system: RPMI-8226
MCF7 = test system: MCF7
CAKI-1 = test system: CAKI-1
LOX IMVI = test system: LOX IMVI
SR = test system: SR
CCRF-CEM = test system: CCRF-CEM
UACC-62 = test system: UACC-62
SK-MEL-5 = test system: SK-MEL-5
COLO 205 = test system: COLO 205
NCI-H23 = test system: NCI-H23
SF-295 = test system: SF-295
SF-539 = test system: SF-539
NCI-H460 = test system: NCI-H460
HCC 2998 = test system: HCC 2998

Compound: O=CN1CCN(CC(O)CN2CCCCC2)CC1 (configuration not stated)
- GI50 (EKVX): > 100 µM (inactive)
- GI50 (MOLT-4): > 100 µM (inactive)
- GI50 (SF-268): > 100 µM (inactive)
- GI50 (ACHN): > 100 µM (inactive)
- GI50 (Hs-578T): > 100 µM (inactive)
- GI50 (KM12): > 100 µM (inactive)
- GI50 (RXF 393): > 100 µM (inactive)
- GI50 (DU-145): > 100 µM (inactive)
- GI50 (SK-MEL-2): > 100 µM (inactive)
- GI50 (OVCAR-3): > 100 µM (inactive)
- GI50 (MDA-N): > 100 µM (inactive)
- GI50 (SNB-19): > 100 µM (inactive)
- GI50 (SW-620): > 100 µM (inactive)
- GI50 (M14): > 100 µM (inactive)
- GI50 (HL-60): > 100 µM (inactive)
- GI50 (HCT-116): > 100 µM (inactive)
- GI50 (HOP-62): > 100 µM (inactive)
- GI50 (T47D): > 100 µM (inactive)
- GI50 (OVCAR-8): > 100 µM (inactive)
- GI50 (SK-MEL-28): > 100 µM (inactive)
- GI50 (NCI/ADR-RES): > 100 µM (inactive)
- GI50 (NCI-H522): > 100 µM (inactive)
- GI50 (Malme-3M): > 100 µM (inactive)
- GI50 (TK-10): > 100 µM (inactive)
- GI50 (PC-3): > 100 µM (inactive)
- GI50 (HCT-15): > 100 µM
- GI50 (IGROV-1): > 100 µM (inactive)
- GI50 (K562): > 100 µM (inactive)
- GI50 (SN12C): > 100 µM (inactive)
- GI50 (786-0): > 100 µM (inactive)
- GI50 (MDA-MB-231): > 100 µM (inactive)
- GI50 (BT-549): > 100 µM (inactive)
- GI50 (UO-31): > 100 µM (inactive)
- GI50 (A549): > 100 µM (inactive)
- GI50 (A498): > 100 µM (inactive)
- GI50 (NCI-H226): > 100 µM (inactive)
- GI50 (MDA-MB-435): > 100 µM (inactive)
- GI50 (HT-29): > 100 µM (inactive)
- GI50 (SK-OV-3): > 100 µM (inactive)
- GI50 (U-251): > 100 µM (inactive)
- GI50 (UACC-257): > 100 µM (inactive)
- GI50 (SNB-75): > 100 µM (inactive)
- GI50 (OVCAR-5): > 100 µM (inactive)
- GI50 (OVCAR-4): > 100 µM (inactive)
- GI50 (RPMI-8226): > 100 µM (inactive)
- GI50 (MCF7): > 100 µM (inactive)
- GI50 (CAKI-1): > 100 µM (inactive)
- GI50 (LOX IMVI): > 100 µM (inactive)
- GI50 (SR): > 100 µM (inactive)
- GI50 (CCRF-CEM): > 100 µM (inactive)
- GI50 (UACC-62): > 100 µM (inactive)
- GI50 (SK-MEL-5): > 100 µM (inactive)
- GI50 (COLO 205): > 100 µM (inactive)
- GI50 (NCI-H23): > 100 µM (inactive)
- GI50 (SF-295): > 100 µM (inactive)

Compound: COC(=O)N1N=C(c2ccccc2)C1c1ccccc1 (configuration not stated)
- GI50 (EKVX): 42.5 µM (inactive)
- GI50 (MOLT-4): 28.1 µM (inactive)
- GI50 (SF-268): 62.7 µM (inactive)
- GI50 (Hs-578T): 71 µM (inactive)
- GI50 (KM12): 47.4 µM (inactive)
- GI50 (RXF 393): 31.7 µM (inactive)
- GI50 (SF-539): 22.9 µM (inactive)
- GI50 (DU-145): 49.2 µM (inactive)
- GI50 (SK-MEL-2): 34.5 µM (inactive)
- GI50 (OVCAR-3): 37.9 µM (inactive)
- GI50 (MDA-N): 31.1 µM (inactive)
- GI50 (SNB-19): 29.5 µM (inactive)
- GI50 (SW-620): 48.6 µM (inactive)
- GI50 (M14): 34.5 µM (inactive)
- GI50 (HL-60): 27.2 µM (inactive)
- GI50 (HCT-116): 33.3 µM (inactive)
- GI50 (T47D): 25.4 µM (inactive)
- GI50 (OVCAR-8): 27.5 µM (inactive)
- GI50 (SK-MEL-28): 39.7 µM (inactive)
- GI50 (NCI/ADR-RES): 23.2 µM (inactive)
- GI50 (Malme-3M): 40.7 µM (inactive)
- GI50 (TK-10): 70.1 µM (inactive)
- GI50 (PC-3): 26.9 µM (inactive)
- GI50 (HCT-15): 39.5 µM
- GI50 (K562): 23.8 µM (inactive)
- GI50 (SN12C): 42.4 µM (inactive)
- GI50 (786-0): 35.2 µM (inactive)
- GI50 (MDA-MB-231): 24.6 µM (inactive)
- GI50 (BT-549): 30.5 µM (inactive)
- GI50 (UO-31): 13.7 µM (inactive)
- GI50 (NCI-H460): 30.8 µM (inactive)
- GI50 (A549): 31 µM (inactive)
- GI50 (A498): 24 µM (inactive)
- GI50 (NCI-H226): 21.8 µM (inactive)
- GI50 (MDA-MB-435): 33.7 µM (inactive)
- GI50 (HT-29): 32.1 µM (inactive)
- GI50 (SK-OV-3): 69.3 µM (inactive)
- GI50 (U-251): 42.7 µM (inactive)
- GI50 (UACC-257): 24.5 µM (inactive)
- GI50 (SNB-75): 36 µM (inactive)
- GI50 (OVCAR-5): 78.5 µM (inactive)
- GI50 (OVCAR-4): 25.8 µM (inactive)
- GI50 (RPMI-8226): 26.7 µM (inactive)
- GI50 (MCF7): 28.9 µM (inactive)
- GI50 (CAKI-1): 33.6 µM (inactive)
- GI50 (LOX IMVI): 26.2 µM (inactive)
- GI50 (SR): 31.9 µM (inactive)
- GI50 (CCRF-CEM): 31.9 µM (inactive)
- GI50 (UACC-62): 22 µM (inactive)
- GI50 (HCC 2998): 32.1 µM (inactive)
- GI50 (COLO 205): 27 µM (inactive)
- GI50 (NCI-H23): 24.8 µM (inactive)

Compound: O=C1NC2(CCCCC2)N=C2C(Cl)CCCC12Cl (configuration not stated)
- GI50 (EKVX): > 100 µM (inactive)
- GI50 (MOLT-4): > 100 µM (inactive)
- GI50 (SF-268): > 100 µM (inactive)
- GI50 (ACHN): > 100 µM (inactive)
- GI50 (Hs-578T): > 100 µM (inactive)
- GI50 (KM12): > 100 µM (inactive)
- GI50 (RXF 393): > 100 µM (inactive)
- GI50 (SF-539): > 100 µM (inactive)
- GI50 (DU-145): > 100 µM (inactive)
- GI50 (SK-MEL-2): > 100 µM (inactive)
- GI50 (OVCAR-3): > 100 µM (inactive)
- GI50 (MDA-N): > 100 µM (inactive)
- GI50 (SNB-19): > 100 µM (inactive)
- GI50 (SW-620): > 100 µM (inactive)
- GI50 (M14): > 100 µM (inactive)
- GI50 (HL-60): > 100 µM (inactive)
- GI50 (HOP-62): > 100 µM (inactive)
- GI50 (T47D): > 100 µM (inactive)
- GI50 (OVCAR-8): > 100 µM (inactive)
- GI50 (SK-MEL-28): > 100 µM (inactive)
- GI50 (NCI/ADR-RES): > 100 µM (inactive)
- GI50 (NCI-H522): > 100 µM (inactive)
- GI50 (Malme-3M): > 100 µM (inactive)
- GI50 (TK-10): > 100 µM (inactive)
- GI50 (PC-3): > 100 µM (inactive)
- GI50 (HCT-15): > 100 µM
- GI50 (IGROV-1): > 100 µM (inactive)
- GI50 (K562): > 100 µM (inactive)
- GI50 (SN12C): > 100 µM (inactive)
- GI50 (786-0): > 100 µM (inactive)
- GI50 (MDA-MB-231): > 100 µM (inactive)
- GI50 (BT-549): > 100 µM (inactive)
- GI50 (UO-31): > 100 µM (inactive)
- GI50 (NCI-H460): > 100 µM (inactive)
- GI50 (A549): 0.0535 µM (active)
- GI50 (A498): > 100 µM (inactive)
- GI50 (NCI-H226): > 100 µM (inactive)
- GI50 (MDA-MB-435): > 100 µM (inactive)
- GI50 (HT-29): > 100 µM (inactive)
- GI50 (SK-OV-3): > 100 µM (inactive)
- GI50 (U-251): > 100 µM (inactive)
- GI50 (SNB-75): > 100 µM (inactive)
- GI50 (OVCAR-5): > 100 µM (inactive)
- GI50 (OVCAR-4): > 100 µM (inactive)
- GI50 (RPMI-8226): > 100 µM (inactive)
- GI50 (MCF7): > 100 µM (inactive)
- GI50 (LOX IMVI): > 100 µM (inactive)
- GI50 (SR): > 100 µM (inactive)
- GI50 (CCRF-CEM): > 100 µM (inactive)
- GI50 (UACC-62): > 100 µM (inactive)
- GI50 (SK-MEL-5): > 100 µM (inactive)
- GI50 (HCC 2998): > 100 µM (inactive)
- GI50 (COLO 205): > 100 µM (inactive)
- GI50 (NCI-H23): > 100 µM (inactive)
- GI50 (SF-295): > 100 µM (inactive)
